Here are results for four compounds from patent US5364842A (priority 1993, dated 1994).

Test [1] has as its system rat tail-flick latency to heat stimulus. The following applies: in vivo.
Test [2] addresses N-type or omega HVA neuronal calcium channels; calcium currents in N1E-115 neuroblastoma cells (Mus musculus, UniProt O55017). Type of test: cell-based.
In test [3] the test system is potassium-stimulated dopamine release from striatal slices. Type of test: cell-based, rat. The following applies: 1 µM.
In test [4] the test system is potassium-stimulated acetylcholine release from striatal slices. The following applies: 1 µM.
Test [5] relates to voltage-gated calcium currents in IMR-32 cells. Type of test: cell-based, human.

Where “and” joins values, the source holds several entries; their conditions need not be identical. Identical values can stand only once.

Chain of N-type or omega HVA neuronal calcium channels; calcium currents in N1E-115 neuroblastoma cells (O55017 whole entry): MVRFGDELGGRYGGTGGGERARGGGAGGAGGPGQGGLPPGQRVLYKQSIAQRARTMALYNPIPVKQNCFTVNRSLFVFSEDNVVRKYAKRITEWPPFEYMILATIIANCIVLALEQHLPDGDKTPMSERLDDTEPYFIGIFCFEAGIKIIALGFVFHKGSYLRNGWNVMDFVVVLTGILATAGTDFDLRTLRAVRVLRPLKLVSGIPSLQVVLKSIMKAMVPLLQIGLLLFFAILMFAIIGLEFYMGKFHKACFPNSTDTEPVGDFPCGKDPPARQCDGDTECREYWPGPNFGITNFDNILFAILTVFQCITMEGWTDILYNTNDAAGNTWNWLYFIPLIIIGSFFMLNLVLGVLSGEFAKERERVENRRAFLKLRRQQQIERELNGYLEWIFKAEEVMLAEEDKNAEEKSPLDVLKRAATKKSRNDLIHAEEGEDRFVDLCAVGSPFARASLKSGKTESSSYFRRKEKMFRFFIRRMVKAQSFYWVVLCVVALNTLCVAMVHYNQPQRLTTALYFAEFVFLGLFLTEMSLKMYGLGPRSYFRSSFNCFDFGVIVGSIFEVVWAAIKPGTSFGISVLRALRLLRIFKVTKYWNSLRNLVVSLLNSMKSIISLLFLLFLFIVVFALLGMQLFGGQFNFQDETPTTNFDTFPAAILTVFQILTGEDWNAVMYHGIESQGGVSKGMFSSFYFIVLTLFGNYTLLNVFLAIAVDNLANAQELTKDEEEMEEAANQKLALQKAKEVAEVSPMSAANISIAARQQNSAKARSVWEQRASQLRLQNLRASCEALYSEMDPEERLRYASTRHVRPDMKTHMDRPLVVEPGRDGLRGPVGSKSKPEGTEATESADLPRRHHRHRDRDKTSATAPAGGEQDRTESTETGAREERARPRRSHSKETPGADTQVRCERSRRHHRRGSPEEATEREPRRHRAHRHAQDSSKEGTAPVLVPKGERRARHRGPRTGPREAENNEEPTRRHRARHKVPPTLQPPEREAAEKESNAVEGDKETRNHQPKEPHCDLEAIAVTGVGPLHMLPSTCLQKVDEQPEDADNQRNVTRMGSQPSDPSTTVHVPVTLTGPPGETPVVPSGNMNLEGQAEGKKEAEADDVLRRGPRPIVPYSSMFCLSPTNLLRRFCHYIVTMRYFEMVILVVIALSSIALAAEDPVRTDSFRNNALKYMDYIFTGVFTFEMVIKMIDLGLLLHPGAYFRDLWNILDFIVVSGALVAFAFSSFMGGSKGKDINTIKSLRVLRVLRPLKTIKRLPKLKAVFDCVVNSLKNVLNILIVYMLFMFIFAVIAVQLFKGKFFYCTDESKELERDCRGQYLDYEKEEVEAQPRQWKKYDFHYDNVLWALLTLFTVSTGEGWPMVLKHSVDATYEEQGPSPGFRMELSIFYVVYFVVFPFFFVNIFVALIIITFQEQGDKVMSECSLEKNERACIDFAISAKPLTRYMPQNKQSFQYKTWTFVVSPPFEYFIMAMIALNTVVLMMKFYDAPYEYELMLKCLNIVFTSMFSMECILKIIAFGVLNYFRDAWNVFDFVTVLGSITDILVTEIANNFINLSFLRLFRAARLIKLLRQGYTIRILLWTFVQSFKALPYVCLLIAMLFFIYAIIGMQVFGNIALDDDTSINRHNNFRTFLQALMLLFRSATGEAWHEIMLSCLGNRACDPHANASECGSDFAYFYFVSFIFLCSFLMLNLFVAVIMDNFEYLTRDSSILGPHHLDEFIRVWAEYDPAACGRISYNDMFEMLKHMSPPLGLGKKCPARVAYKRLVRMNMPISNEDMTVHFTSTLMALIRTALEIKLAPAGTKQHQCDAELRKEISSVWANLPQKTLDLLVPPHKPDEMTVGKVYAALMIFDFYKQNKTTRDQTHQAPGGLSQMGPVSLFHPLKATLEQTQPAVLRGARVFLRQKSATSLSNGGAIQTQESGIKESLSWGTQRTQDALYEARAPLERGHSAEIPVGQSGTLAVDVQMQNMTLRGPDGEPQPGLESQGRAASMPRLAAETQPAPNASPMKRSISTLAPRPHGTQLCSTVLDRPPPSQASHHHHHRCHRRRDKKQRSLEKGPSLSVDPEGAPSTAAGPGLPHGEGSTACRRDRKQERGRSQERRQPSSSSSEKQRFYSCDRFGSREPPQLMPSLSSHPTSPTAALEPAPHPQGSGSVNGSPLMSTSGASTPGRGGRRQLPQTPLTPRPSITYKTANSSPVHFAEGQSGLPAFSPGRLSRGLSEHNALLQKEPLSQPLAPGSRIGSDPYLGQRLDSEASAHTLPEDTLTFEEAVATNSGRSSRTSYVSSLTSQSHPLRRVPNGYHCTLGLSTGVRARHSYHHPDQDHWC
Chain of N-type or omega HVA neuronal calcium channels; calcium currents in N1E-115 neuroblastoma cells (O08532 25-956 partner limits assumed): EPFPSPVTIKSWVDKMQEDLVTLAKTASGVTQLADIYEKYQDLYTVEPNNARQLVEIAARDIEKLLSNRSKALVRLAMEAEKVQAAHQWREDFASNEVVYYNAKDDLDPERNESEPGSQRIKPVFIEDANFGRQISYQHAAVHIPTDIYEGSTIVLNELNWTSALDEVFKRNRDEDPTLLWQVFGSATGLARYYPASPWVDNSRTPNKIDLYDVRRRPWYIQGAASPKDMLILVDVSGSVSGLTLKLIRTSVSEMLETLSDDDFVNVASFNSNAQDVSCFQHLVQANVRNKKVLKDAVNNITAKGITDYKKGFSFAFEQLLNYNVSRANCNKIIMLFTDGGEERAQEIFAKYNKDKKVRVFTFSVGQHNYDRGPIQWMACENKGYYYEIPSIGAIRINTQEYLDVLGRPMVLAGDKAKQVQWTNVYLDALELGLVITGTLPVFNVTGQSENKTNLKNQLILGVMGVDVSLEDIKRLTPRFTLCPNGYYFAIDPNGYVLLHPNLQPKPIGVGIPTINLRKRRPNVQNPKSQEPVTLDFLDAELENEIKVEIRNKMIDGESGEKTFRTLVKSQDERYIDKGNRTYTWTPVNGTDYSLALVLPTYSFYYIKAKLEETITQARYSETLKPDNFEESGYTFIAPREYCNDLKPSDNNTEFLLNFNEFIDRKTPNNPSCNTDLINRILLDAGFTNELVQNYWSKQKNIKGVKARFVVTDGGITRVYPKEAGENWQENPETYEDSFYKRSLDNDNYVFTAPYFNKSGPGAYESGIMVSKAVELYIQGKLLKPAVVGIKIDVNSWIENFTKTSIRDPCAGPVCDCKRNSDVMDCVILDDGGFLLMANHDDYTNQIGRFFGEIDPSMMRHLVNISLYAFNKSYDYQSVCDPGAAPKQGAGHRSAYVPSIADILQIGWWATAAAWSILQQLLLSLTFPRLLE
Chain of N-type or omega HVA neuronal calcium channels; calcium currents in N1E-115 neuroblastoma cells (O08532 957-1103 partner limits assumed): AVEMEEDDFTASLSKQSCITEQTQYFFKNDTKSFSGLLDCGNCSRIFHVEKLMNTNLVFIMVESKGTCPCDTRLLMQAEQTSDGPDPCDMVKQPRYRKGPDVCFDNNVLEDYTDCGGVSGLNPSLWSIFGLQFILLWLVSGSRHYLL

In the case of `CN1CC[C@]23c4c5ccc(O)c4O[C@H]2[C@@H](O)C=C[C@H]3[C@H]1C5` [Morphine, morphine], in test [1], the “Analgesia (% Effect), mean MPE” value is reported as 23; the “Latency Percent Effect, mean” value was 17 and 19 and 18; the “Latency Percent Effect, mean MPE” value was found to be 26.

As for `COC(=O)C1=C(C)NC(C)=C(C(=O)OC)C1c1ccccc1[N+](=O)[O-]` [nifedipine], in test [2], the “effect on the measured calcium current” value was “no effect”.

Consider amiodipine, for which the “% inhibition of [3H]dopamine release” value in test [3] worked out at 0. For the same compound, the “% inhibition of [3H]acetylcholine release” value in test [4] came to 0.

Regarding cadmium, in test [5], the “effect of addition to the medium on remaining voltage-gated calcium currents” value was “blockade of all remaining voltage-gated calcium currents”.
